Data published in patent US12012408B2, “Purine compounds and method for the treatment of cancer” (THE ROYAL INSTITUTION FOR THE ADVANCEMENT OF …, priority 2018, dated 2024).

Test: In vivo tolerability
Parameters: species or system mice
Settings: administered intraperitoneally
Description: Breast cancer stem-like cells (BCSCs), heterogeneously subsisting as CD24low/CD44high and ALDHhigh subpopulations, are enriched in aggressive breast cancer subtypes and believed to be responsible for driving metastatic colonization. Despite evidence of a clinical association between BCSC and poor prognosis, effective therapeutic means to target this cell population is lacking. We identified SLLN-15 as a compound with selective anti-sternness activity across a panel of cell lines expressing ALDHhigh and CD24low/CD44high markers, including MDA-MB-231, SUM-149PT, BT-20, SKBR3, 4T1 and several anaplastic thyroid cell lines. […] In summary, our data foster that targeting regulatory networks driving sternness represent important therapeutic targets for treating metastatic breast disease.

For `c1nc2nc(Nc3ccc(N4CC[Se]CC4)cc3)nc(N[C@H]3CC[Se]C3)c2[nH]1` [SLLN-15], the tolerability was “well-tolerated”.
